From US20180296630A1, “METHODS AND COMPOSITIONS FOR PREVENTING OR TREATING OPHTHALMIC CONDITIONS” (Stealth BioTherapeutics Corp, priority 2012, published 2018)

Test: Ocular pharmacokinetics and disposition of total radioactivity after topical instillation or subcutaneous dosing
Assay type: in vivo, New Zealand White rabbits
Settings: for AUC0-24 h / AUCinf / T1/2 / Tmax: topical instillation 1% solution, 40 μL/eye, total radioactivity; for time post-dosing at which equivalent drug concentration reached a maximum / equivalent drug content at peak concentration, of the total dose administered to the eye: topical instillation
Method: Sixteen New Zealand White rabbits were dosed with a formulation consisting of 10 mg/mL of ^14C-labeled D-Arg-2′,6′-Dmt-Lys-Phe-NH2. Animals were at least twelve weeks old and weighed 2.30-3.43 kg at the time of dosing. Animals were randomized to treatment groups according to Table 7.
Dosing solutions were prepared by combining 14.70 mg (correction factor of 0.782) of non-radiolabeled D-Arg-2′,6′-Dmt-Lys-Phe-NH2, and 17.49 mg (correction factor of 0.770) of ^14C-labeled D-Arg-2′,6′-Dmt-Lys-Phe-NH2, and dissolving in 2.5 mL of 0.01M PBS, pH 7.4 to achieve a concentration of 9.97 mg/mL (1%, free peptide) and a radiolabeled concentration of […]. Three aliquots (100 μL) of dosing solution were brought to a volume of 25 mL with saline. Duplicate 100 μL aliquots of the diluted solutions were quantified for radioactivity by liquid scintillation counting (LSC). […] The dosing solutions were stored at 2-8° C. for up to 24 hours prior to use, or at −70° C. for future use.
On Day 1, 40 μL of the 1% (10 mg/mL) D-Arg-2′,6′-Dmt-Lys-Phe-NH2 dosing solution was topically instilled into both eyes of each animal in Groups A-G. Each animal in Groups H-I received a single subcutaneous dose of 0.1 mL/kg (1 mg/kg) of the dosing solution into the dorsal scapular region. At the designated time, each animal was anesthetized and blood was collected via cardiac puncture. Animals were euthanized following cardiac puncture. Approximately 3±0.5 mL of whole blood was collected in a K2EDTA tube. Four aliquots (100 μL) were directly transformed to combustion cones. Blood aliquots were stored at ≤−20° C. until analyzed.
For Groups A-G, the right globe and one left globe from each group (N=3 globes) were collected and necropsied. The remaining left eye (except for Group G) was collected for possible 3D-QWBA (Quantitative whole body autoradiography) analysis and the conjunctiva remained intact to the eyes. For Groups H-I, both globes were collected from each animal and necropsied. All eyes designated for necropsy were rinsed with normal saline and aqueous humor samples were collected. The globes were enucleated and frozen in liquid nitrogen and stored at ≤−80° C. prior to dissection. The vitreous humor, cornea, conjunctiva, iris/ciliary body, lens, retina, choroid, and sclera were collected from the appropriate eye, weighed, and stored at ≤−20° C. prior to analysis. Aqueous humor samples were also stored at ≤−20° C. until analyzed.
All radioactivity measurements were performed using a Beckman Liquid Scintillation Spectrometer. Two blood aliquots were combusted and two aliquots were reserved for combustion if needed. From each eye, the cornea, conjunctiva, iris/ciliary body, lens, retina, choroid, and sclera from each eye were weighed into combustion cones and combusted. Duplicate aliquots of each aqueous humor sample and each vitreous humor sample were transferred to scintillation vials using Insta-Gel as the scintillation fluid, and the amount of radioactivity was determined.

## D-Arg-2′,6′-Dmt-Lys-Phe-NH2
Aqueous humor
  AUC0-24 h: 2600 hr*ng-equi/g
  AUCinf: 2680 hr*ng-equi/g
  T1/2: 4.60 h
  Tmax: 4.0 h
blood, 1 hour after subcutaneous dosing (1 mg/kg)
  radioactivity concentration: 356 ng-equi/g
blood, 2 hours after subcutaneous dosing (1 mg/kg)
  radioactivity concentration: 87.9 ng-equi/g
blood
  AUC0-24 h: 1210 hr*ng-equi/g
  AUCinf: 1250 hr*ng-equi/g
  T1/2: 4.36 h
  Tmax: 2.0 h
choroid, lens and retina
  time post-dosing at which equivalent drug concentration reached a maximum: 4 h
choroid, 1 hour after subcutaneous dosing (1 mg/kg)
  equivalent drug concentration: 558±251 ng-equi/g
choroid
  AUC0-24 h: 1900 hr*ng-equi/g
  AUCinf: 2190 hr*ng-equi/g
  T1/2: 8.21 h
  Tmax: 4.0 h
conjunctiva, cornea and sclera
  time post-dosing at which equivalent drug concentration reached a maximum: 0.5 h
conjunctiva, 1 hour after subcutaneous dosing (1 mg/kg)
  equivalent drug concentration: 650±12 ng-equi/g
conjunctiva
  equivalent drug content at peak concentration, of the total dose administered to the eye: 0.293±0.198%
  AUC0-24 h: 41,400 hr*ng-equi/g
  AUCinf: 56,000 hr*ng-equi/g
  T1/2: 13.6 h
  Tmax: 0.5 h
cornea, 1 hour after subcutaneous dosing (1 mg/kg)
  equivalent drug concentration: 209 ng-equi/g
cornea
  equivalent drug content at peak concentration, of the total dose administered to the eye: 0.028±0.005%
  AUC0-24 h: 14,000 hr*ng-equi/g
  Tmax: 0.5 h
iris/ciliary body, 1 hour after subcutaneous dosing (1 mg/kg)
  equivalent drug concentration: 513±2 ng-equi/g
iris/ciliary body
  AUC0-24 h: 2750 hr*ng-equi/g
  AUCinf: 3279 hr*ng-equi/g
  T1/2: 8.81 h
  Tmax: 4.0 h
lens
  AUC0-24 h: 2720 hr*ng-equi/g
  Tmax: 4.0 h
retina, 1 hour after subcutaneous dosing (1 mg/kg)
  equivalent drug concentration: 336±3 ng-equi/g
retina
  AUC0-24 h: 1030 hr*ng-equi/g
  AUCinf: 1160 hr*ng-equi/g
  T1/2: 7.01 h
  Tmax: 4.0 h
sclera, 1 hour after subcutaneous dosing (1 mg/kg)
  equivalent drug concentration: 530±47 ng-equi/g
sclera
  equivalent drug content at peak concentration, of the total dose administered to the eye: 0.051±0.035%
  AUC0-24 h: 5780 hr*ng-equi/g
  AUCinf: 8910 hr*ng-equi/g
  T1/2: 18.3 h
  Tmax: 0.5 h
Vitreous humor
  AUC0-24 h: 221 hr*ng-equi/g
  AUCinf: 253 hr*ng-equi/g
  T1/2: 7.50 h
  Tmax: 4.0 h
